# Measurements reported in US20220039384A1, “SELECTIVE WEED CONTROL WITH HALAUXIFEN OR 4-AMINO-3-CHLORO-5-FLUORO-6-(4-CHLORO-2-FLUORO-3-METHOXYPHENYL) PYRIDINE-2-CARBOXYLIC ACID OR DERIVATIVES THEREOF IN VINEYARDS OR PERENNIAL CROPS” (Corteva Agriscience LLC, priority 2013, published 2022).
# Key:
# Type in all cases: in vivo
# [1] = tested on: commercially relevant broadleaf and grass weeds; test: Pre- and post-emergence weed control, general statement; details: application rate of 2.5 to 40 g ae/ha; pre-emergence and post-emergence application
# Source text: (§1) Additional examples of application rates for Compound I as a pre-emergence and post-emergence application include 0.25 to 50 g ae/ha, 0.25 to 45 g ae/ha, 0.25 to 40 g ae/ha, 0.25 to 35 g ae/ha, 0.25 to 30 g ae/ha, 0.25 to 25 g ae/ha, 0.25 to 20 g ae/ha, 0.25 to 15 g ae/ha, 0.25 to 10 g ae/ha, 0.25 to 5 g ae/ha, 2.5 to 50 g ae/ha, 5 to 50 g ae/ha, 10 to 50 g ae/ha, 15 to 50 g ae/ha, 20 to 50 g ae/ha, 25 to 50 g ae/ha, 30 to 50 g ae/ha, 35 to 50 g ae/ha, 40 to 50 g ae/ha, 45 to 50 g ae/ha, 5 to 40 g ae/ha, 10 to 40 g ae/ha, 15 to 40 g ae/ha, 20 to 40 g ae/ha, 25 to 40 g ae/ha, 30 to 40 g ae/ha, 35 to 40 g ae/ha, 2.5 to 35 g ae/ha, 2.5 to 30 g ae/ha, 2.5 to 25 g ae/ha, 2.5 to 20 g ae/ha, 2.5 to 15 g ae/ha, 2.5 to 10 g ae/ha, 2.5 to 5 g ae/ha, 5 to 35 g ae/ha, 10 to 30 g ae/ha, 15 to 25 g ae/ha, and 15 to 20 g ae/ha. Further examples of application rates for Compound I as a pre-emergence and post-emergence application include 0.25 g ae/ha, 0.5 g ae/ha, 0.75 g ae/ha, 1 g ae/ha, 1.25 g ae/ha, 1.5 g ae/ha, 1.75 g ae/ha, 2 g ae/ha, 2.25 g ae/ha, 2.5 g ae/ha, 3 g ae/ha, 4 g ae/ha, 5 g ae/ha, 6 g ae/ha, 7 g ae/ha, 8 g ae/ha, 9 g ae/ha, 10 g ae/ha, 12 g ae/ha, 14 g ae/ha, 16 g ae/ha, 18 g ae/ha, 20 g ae/ha, 22 g ae/ha, 24 g ae/ha, 26 g ae/ha, 28 g ae/ha, 30 g ae/ha, 32 g ae/ha, 34 g ae/ha, 36 g ae/ha, 38 g ae/ha, 40 g ae/ha, 42 g ae/ha, 44 g ae/ha, 46 g ae/ha, 48 g ae/ha, and 50 g ae/ha. […]
# [2] = tested on: grapevines and perennial crops; test: Crop safety, general statement; details: post-emergence application rates of ≤20 g ae/ha; dormant application or spring application directed under the crops
# Source text: as §1
# [3] = tested on: STEME (Stellaria media, common chickweed); test: Field trial, post-emergence directed spring application (March), California vineyards: visual weed control
# Source text: (§2) As used herein, selective pre- and post-emergence control of undesirable vegetation means preventing, reducing, killing, or otherwise adversely modifying the development of the undesirable vegetation in the presence of crop plants with limited adverse effect on the crop plants. For example, a broadleaf weed control of 80% (rated visually) with crop injury of less than or equal to 20% (rated visually) would constitute selective control. In some embodiments the adverse effect on crop plants is limited to less than 10% visually rated crop injury. Visual crop injury is a composite rating accounting for all phytotoxic effects including chlorosis, necrosis, growth inhibition, epinasty, delays in maturity and seed or fruit deformity. Visual weed control is a composite rating accounting for reductions in pest plant biomass and/or stand reduction.
# (§3) Small plot research experiments were conducted in Fresno, Calif., USA to evaluate the pre-emergence and post-emergence herbicidal weed control activity and the vines crop tolerance to pre-emergence and post-emergence application of Compound I and Compound II to the weeds. Application water volume of 100 to 187 liters per hectare (L/ha) was used for all experiments. All treatments were applied with a standard small plot carbon dioxide (CO2) backpack sprayer. All treatments were tank-mixed with Crop Oil Concentrate (COC), a well known adjuvant, at 2.34 L/ha. Experimental emulsifiable concentrate (EC) formulations were used for Compounds I and II. The dimethylammonium (DMA) salt of glyphosate was used in all trials. Pindar® GT is a commercial formulation containing a pre-mix of penoxsulam+oxyfluorfen (10+476 grams of active ingredient per liter (g ai/L), respectively). Vine crop stage was dormant (no leaves on the vines during the winter) or early spring growth at the time of Compound I or Compound II application. Generally, weeds were not emerged for the pre-emergence treatments or were at the two to six-leaf stage at the time of the post-emergence herbicide application.
# (§4) Tables 1, 2 and 6 provide weed control results from pre-emergence applications of Compounds I and/or II prior to weed emergence; Tables 4, 7 and 8 provide weed control results from post-emergence applications of Compounds I and/or II applied to actively growing weeds; Tables 3 and 5 provide vine response data from pre-emergence and post-emergence applications of Compound I respectively.
# [4] = tested on: MALPA (Malva parviflora, smallflower malva); test: as above
# Source text: as §2, §3, §4
# [5] = tested on: MEDPO (Medicago polymorpha, California burclover); test: as above
# Source text: as §2, §3, §4
# [6] = tested on: EROCI (Erodium cicutarium, redstem filaree); test: as above
# Source text: as §2, §3, §4
# [7] = tested on: CAPBP (Capsella bursa-pastoris, Shepherd's purse); test: Field trial, pre-emergence application (February), California vineyards: visual weed control
# Source text: as §2, §3, §4
# [8] = tested on: AMSIN (Amsinckia intermedia, coast fiddleneck); test: as above
# Source text: as §2, §3, §4
# [9] = tested on: CLNCM (Calandrinia ciliata, rock purslane); test: as above
# Source text: as §2, §3, §4
# [10] = tested on: IPOSS (Ipomoea spp, morningglory); test: Field trial, post-emergence directed dormant application (December), California vineyards: visual weed control
# Source text: as §2, §3, §4
# [11] = tested on: CAPBP (Capsella bursa-pastoris, Shepherd's purse); test: as above
# Source text: as §2, §3, §4
# [12] = tested on: AMSIN (Amsinckia intermedia, coast fiddleneck); test: as above
# Source text: as §2, §3, §4
# [13] = tested on: AMARE (Amaranthus retroflexus, redroot pigweed); test: as above
# Source text: as §2, §3, §4
# [14] = tested on: CHEAL (Chenopodium album, common lambsquarters); test: as above
# Source text: as §2, §3, §4
smiles,measurement,setting,value
"COc1c(Cl)ccc(-c2cc(N)c(Cl)c(C(=O)O)n2)c1F [Compound I, 4-amino-3-chloro-6-(4-chloro-2-fluoro-3-methoxyphenyl)pyridine-2-carboxylic acid]",efficacy on commercially relevant broadleaf and grass weeds,[1],highly efficacious
same,crop injury to grapevines and perennial crops,[2],little to no crop injury
"COc1c(Cl)ccc(-c2nc(C(=O)OCc3ccccc3)c(Cl)c(N)c2F)c1F [II-Bn, benzyl 4-amino-3-chloro-5-fluoro-6-(4-chloro-2-fluoro-3-methoxyphenyl)pyridine-2-carboxylate]",% Visual Control 59 DAA STEME,[3]; 5 g ai/ha,70%
same,% Visual Control 59 DAA STEME,[3]; 10 g ai/ha,75%
same,% Visual Control 59 DAA STEME,[3]; 20 g ai/ha,84.3%
same,% Visual Control 59 DAA STEME,[3]; 40 g ai/ha,94.3%
same,% Visual Control 59 DAA STEME,[3]; 50 g ai/ha,97.3%
same,% Visual Control 59 DAA MALPA,[4]; 5 g ai/ha,61.9%
same,% Visual Control 59 DAA MALPA,[4]; 10 g ai/ha,83.4%
same,% Visual Control 59 DAA MALPA,[4]; 20 g ai/ha,90%
same,% Visual Control 59 DAA MALPA,[4]; 40 g ai/ha,95%
same,% Visual Control 59 DAA MALPA,[4]; 50 g ai/ha,96.7%
same,% Visual Control 59 DAA MEDPO,[5]; 5 g ai/ha,100%
same,% Visual Control 59 DAA MEDPO,[5]; 10 g ai/ha,100%
same,% Visual Control 59 DAA MEDPO,[5]; 20 g ai/ha,100%
same,% Visual Control 59 DAA MEDPO,[5]; 40 g ai/ha,100%
same,% Visual Control 59 DAA MEDPO,[5]; 50 g ai/ha,100%
same,% Visual Control 59 DAA EROCI,[6]; 5 g ai/ha,81.7%
same,% Visual Control 59 DAA EROCI,[6]; 10 g ai/ha,85%
same,% Visual Control 59 DAA EROCI,[6]; 20 g ai/ha,85%
same,% Visual Control 59 DAA EROCI,[6]; 40 g ai/ha,94.3%
same,% Visual Control 59 DAA EROCI,[6]; 50 g ai/ha,96%
same,% Visual Control 48 DAA CAPBP,[7]; 5 g ai/ha,0%
same,% Visual Control 48 DAA CAPBP,[7]; 10 g ai/ha,60%
same,% Visual Control 48 DAA CAPBP,[7]; 20 g ai/ha,76.7%
same,% Visual Control 48 DAA CAPBP,[7]; 40 g ai/ha,100%
same,% Visual Control 48 DAA CAPBP,[7]; 50 g ai/ha,96.7%
same,% Visual Control 48 DAA AMSIN,[8]; 5 g ai/ha,0%
same,% Visual Control 48 DAA AMSIN,[8]; 10 g ai/ha,33.3%
same,% Visual Control 48 DAA AMSIN,[8]; 20 g ai/ha,40%
same,% Visual Control 48 DAA AMSIN,[8]; 40 g ai/ha,87.3%
same,% Visual Control 48 DAA AMSIN,[8]; 50 g ai/ha,84.3%
same,% Visual Control 48 DAA CLNCM,[9]; 5 g ai/ha,0%
same,% Visual Control 48 DAA CLNCM,[9]; 10 g ai/ha,40%
same,% Visual Control 48 DAA CLNCM,[9]; 20 g ai/ha,56.7%
same,% Visual Control 48 DAA CLNCM,[9]; 40 g ai/ha,90%
same,% Visual Control 48 DAA CLNCM,[9]; 50 g ai/ha,96.7%
same,% Visual Control 57 DAA IPOSS,[10]; 5 g ai/ha,55%
same,% Visual Control 57 DAA IPOSS,[10]; 10 g ai/ha,46.7%
same,% Visual Control 57 DAA IPOSS,[10]; 20 g ai/ha,66.7%
same,% Visual Control 57 DAA IPOSS,[10]; 40 g ai/ha,66.7%
same,% Visual Control 57 DAA IPOSS,[10]; 50 g ai/ha,97.3%
same,% Visual Control 57 DAA CAPBP,[11]; 5 g ai/ha,100%
same,% Visual Control 57 DAA CAPBP,[11]; 10 g ai/ha,100%
same,% Visual Control 57 DAA CAPBP,[11]; 20 g ai/ha,100%
same,% Visual Control 57 DAA CAPBP,[11]; 40 g ai/ha,100%
same,% Visual Control 57 DAA CAPBP,[11]; 50 g ai/ha,100%
same,% Visual Control 57 DAA AMSIN,[12]; 5 g ai/ha,56.7%
same,% Visual Control 57 DAA AMSIN,[12]; 10 g ai/ha,96.7%
same,% Visual Control 57 DAA AMSIN,[12]; 20 g ai/ha,86.7%
same,% Visual Control 57 DAA AMSIN,[12]; 40 g ai/ha,100%
same,% Visual Control 57 DAA AMSIN,[12]; 50 g ai/ha,100%
same,% Visual Control 57 DAA AMARE,[13]; 5 g ai/ha,100%
same,% Visual Control 57 DAA AMARE,[13]; 10 g ai/ha,95%
same,% Visual Control 57 DAA AMARE,[13]; 20 g ai/ha,100%
same,% Visual Control 57 DAA AMARE,[13]; 40 g ai/ha,100%
same,% Visual Control 57 DAA AMARE,[13]; 50 g ai/ha,100%
same,% Visual Control 57 DAA CHEAL,[14]; 5 g ai/ha,96.7%
same,% Visual Control 57 DAA CHEAL,[14]; 10 g ai/ha,100%
same,% Visual Control 57 DAA CHEAL,[14]; 20 g ai/ha,100%
same,% Visual Control 57 DAA CHEAL,[14]; 40 g ai/ha,100%
same,% Visual Control 57 DAA CHEAL,[14]; 50 g ai/ha,100%
"O=C(O)CNCP(=O)(O)O [Glyphosate, glyphosate, reference compound]",% Visual Control 59 DAA STEME,[3]; 1680 g ae/ha,93.3%
same,% Visual Control 59 DAA MALPA,[4]; 1680 g ae/ha,86.7%
same,% Visual Control 59 DAA MEDPO,[5]; 1680 g ae/ha,100%
same,% Visual Control 59 DAA EROCI,[6]; 1680 g ae/ha,91%
same,% Visual Control 48 DAA CAPBP,[7]; 1680 g ae/ha,0%
same,% Visual Control 48 DAA AMSIN,[8]; 1680 g ae/ha,0%
same,% Visual Control 48 DAA CLNCM,[9]; 1680 g ae/ha,0%
same,% Visual Control 57 DAA IPOSS,[10]; 1680 g ae/ha,51.7%
same,% Visual Control 57 DAA CAPBP,[11]; 1680 g ae/ha,99.3%
same,% Visual Control 57 DAA AMSIN,[12]; 1680 g ae/ha,100%
same,% Visual Control 57 DAA AMARE,[13]; 1680 g ae/ha,0%
same,% Visual Control 57 DAA CHEAL,[14]; 1680 g ae/ha,95%
